From PubChem BioAssay AID463074 (Broad Institute, 2010)
“And” between values parts separate entries of the source, which are not always exact repeats. Equal entries are not always repeated. The source made the active and inactive calls.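 How the source made its calls: active means AC50 no more than tenfold above the top dose tested, or full inhibition at every dose with a flat fit (cut at about 19 µM in these data); inconclusive means flat curve fit with inhibition between 30% and 70%, or poor fit; inactive means AC50 more than tenfold above the top dose tested.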

Tested on: HMLE_sh_eGFP viability, CellTiter-Glo luminescence, 72 h
Assay: viability loss of HMLE_sh_eGFP cells – cell-based, luminescence, counter-screen for HMLE_sh_ECad selective toxicity project, dose response (AID 463074);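 further: counterscreen control line to flag general toxicity for the HMLE_sh_ECad screen; potency for loss of viability as luminescence drops below DMSO wells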

Structure (SMILES)	AC50
Cc1oc2c(c1C(=O)N1CCC(C)CC1)C(=O)c1ccccc1C2=O	7.99 µM
CNC(=O)NC(=O)C(C)OC(=O)c1c2c(nc3ccccc13)/C(=C/c1cccs1)CC2 (stereo not given)	4.01 µM
O=C(Nc1cccc(-c2csc(-c3ccccc3)n2)c1)c1cccs1	5.22 µM
COC(=O)c1ccc(CN(c2ccc(C(=O)O)c(O)c2)S(=O)(=O)c2ccc(Cl)c([N+](=O)[O-])c2)cc1	3.5 µM
O=C(NCc1ccco1)c1nc2c(nnn2Cc2ccccc2Cl)c(=O)[nH]1	1.92 µM
Cc1cccc(OCCNC(=O)c2cccc(Oc3ccc(C(F)(F)F)cc3[N+](=O)[O-])c2)c1	6.38 µM
COc1ccc(C(=O)/C=C2/C(=O)Nc3ccccc32)cc1	6.73 µM
CN(C)/N=C/C=C1\CCC/C(=C\c2ccc(F)c(F)c2)C1=O	10.5 µM
c1ccc(CN2CCN(c3nc(NCc4ccco4)c4ccccc4n3)CC2)cc1	4.22 µM
CCOC(=O)c1ccc(NC(=O)c2nc[nH]c2C(=O)NCCCCNC(=O)c2[nH]cnc2C(=O)Nc2ccc(C(=O)OCC)cc2)cc1	3.99 µM
CCN(CC)CCOc1ccc(/C(=C(/Cl)c2ccccc2)c2ccccc2)cc1	0.992 µM and 2.55 µM
COc1ccc2nc(C)cc(SCC(=O)N/N=C/c3cccc4ccccc34)c2c1	1.86 µM
O=C(Nc1nc(-c2cccs2)cs1)c1ccc([N+](=O)[O-])o1	3.18 µM
Cc1sc(NC(=O)C2CCCCC2)c(C#N)c1-c1ccccc1	> 19.5 µM (inactive)
N#CC1=C(N)N2C(=C(C#N)C1c1ccc(Br)cc1)Nc1ccccc12 (stereo not given)	2.99 µM
CN1C2CCC1/C(=C\c1ccccc1)C(=O)/C2=C\c1ccccc1	4.24 µM
O=C(O)c1cccc(N/N=C(\N=Nc2ccccc2)c2ccccc2)c1	4.25 µM
O=C1C2C3C=CC(C3)C2C(=O)N1c1ccc(N2CCN(c3ccccn3)CC2)c([N+](=O)[O-])c1 (stereo not given)	3.42 µM
O=C(Nc1cc(S(=O)(=O)Nc2ccc(Cl)cc2)ccc1N1CCCCC1)c1ccc(F)cc1Cl	5.37 µM
O=C(/C=C/c1ccco1)NCC1OCCc2ccccc21 (stereo not given)	> 19.5 µM (inactive)
O=C(Nc1ccc(C(O)(C(F)(F)F)C(F)(F)F)cc1)c1ccc(Cl)c([N+](=O)[O-])c1	7.08 µM
Cc1ccc(N/N=C/c2c(O)n(-c3ccccc3)c(=O)[nH]c2=O)cc1	3.87 µM
Cc1ccc(S(=O)(=O)Nc2ccccc2-c2ccccc2NS(=O)(=O)c2ccc(C)cc2)cc1	6.98 µM
Cc1ccccc1CS(=O)(=O)c1ncc(Cl)c(C(=O)Nc2ccc(F)cc2)n1	4.11 µM
COc1c(CC=C(C)C)cc(C2CC(=O)c3c(O)cc(O)cc3O2)cc1CC=C(C)C (stereo not given)	3.65 µM

Structure (SMILES)	AC50
NC1=NC[C@@H](CC2CCCCC2)N1CCc1cc(C(F)(F)F)cc(C(F)(F)F)c1	2.74 µM
Cc1[nH]nc2nc(SCC(=O)NC3CCCCC3)n(-c3ccc(Br)cc3)c(=N)c12	14.4 µM
CN(C)CCNc1nc2sc3c(c2c(=O)n1-c1ccccc1)CCCCC3	3.22 µM
OCCN1CCN(CCCN2c3ccccc3Sc3ccc(C(F)(F)F)cc32)CC1	4.67 µM
CC(C)n1cnc2c(NCc3ccccc3)cc(N[C@H](C)CO)cc21	7.36 µM
CCCCCCc1cc2cc(S(=O)(=O)c3ccc(Cl)cc3)c(=O)oc2cc1O	9.25 µM
O=C(CC1NCCc2ccccc21)Nc1ccc(Oc2ccccc2)cc1 (stereo not given)	7.46 µM
CCn1c(=O)c(C(=O)NCCc2ccccc2)c(O)c2ccccc21	5.62 µM
CC1(C)CC[C@]2(C(=O)O)CC[C@]3(C)C(=CC[C@@H]4[C@@]5(C)CC[C@H](O[C@@H]6O[C@H](C(=O)O)[C@@H](O)[C@H](O[C@@H]7OC[C@H](O)[C@H](O)[C@H]7O)[C@H]6O)C(C)(C)[C@@H]5CC[C@]43C)[C@@H]2C1	5.14 µM
Cc1ccc(C(C)C)c(OCc2nn(CC(=O)c3ccc(Cl)cc3)c3[n+]2CCCCC3)c1	3.22 µM
COc1ccc(-c2sc3cc4c(cc3c2-c2ccc(OCCN3CCOCC3)cc2)OCO4)cc1	0.254 µM
O=C1[C@@H]2Cc3c([nH]c4ccccc34)C(c3cccc(Br)c3)N2C(=O)CN1C1CCN(Cc2ccccc2)CC1 (stereo not given in full)	7.12 µM
Cc1cc(NC(=O)/C=C/c2ccc(Cl)cc2)no1	> 19.5 µM (inactive)
Cc1cccc(CNc2ccc(C(CC(N)=O)NC(=O)Cc3cccc4ccccc34)cc2[N+](=O)[O-])c1 (stereo not given)	13.7 µM
C=C(C)[C@@H]1CC[C@]2(C(=O)O)CC[C@]3(C)[C@H](CC[C@@H]4[C@@]5(C)CC[C@H](O)C(C)(C)[C@@H]5CC[C@]43C)[C@@H]12	3.97 µM
Cc1cc(N2C(=O)C=CC2=O)c([N+](=O)[O-])cc1C	5.88 µM
C=CCSC(=C(C#N)C#N)c1cc2c([nH]1)CCCC2	13.5 µM
COc1ccc(/C=C/c2nc3cc(-c4ccccc4)ccc3o2)cc1O	9.18 µM
Cc1ccc2nc(-c3cccc(NS(C)(=O)=O)c3)cc(-c3ccccc3)c2c1	5.53 µM
Cc1cccc(-n2c(/C=C/c3ccc([N+](=O)[O-])o3)nc3ccccc3c2=O)c1	1.99 µM
Cc1cc(C)cc(N2C(=O)NC(=O)/C(=C/c3cccn3-c3ccc(Cl)cc3)C2=O)c1	2.84 µM
O=C(C1CCCN(S(=O)(=O)c2ccc([N+](=O)[O-])cc2)C1)N1CCCCC1 (stereo not given)	> 19.5 µM (inactive)
O=C(Nc1ccc(C(F)(F)F)cc1)c1cccn(Cc2ccc3c(c2)OC(F)(F)O3)c1=O	4.91 µM
Cc1c(C)n(CCc2ccccc2)c2ncnc(NCCCN(C)C)c12	5.52 µM
C=C1CCc2c([nH]c3ccc(OCC(C)C)cc23)C1=O	5.57 µM

Structure (SMILES)	AC50
COc1ccc(-c2sc3cc(OC)c(OC)cc3c2C#CC2(O)CCCCC2)cc1	5.19 µM
COc1cccc(-c2sc3ccc(OC)cc3c2C#CC2(O)CCCCC2)c1	7.25 µM
N#Cc1c([N+](=O)[O-])cc([N+](=O)[O-])cc1S(=O)(=O)Cc1ccccc1	3.62 µM
COc1ccc(CNC(=O)c2c(N)n(CCCN3CCOCC3)c3nc4ccccc4nc23)cc1	6.67 µM
O=C(c1cc(-c2cccc(O)c2)on1)N1CCN(C(c2ccccc2)c2ccccc2)CC1	3.11 µM
CC(C)(C)OC(=O)NCCc1nnc(S(=O)(=O)Cc2ccc(Cl)cc2Cl)o1	5.73 µM
Cc1ccc(N2C(=O)C3C4C=CC(CC4)C3C2=O)cc1Br (stereo not given)	1.38 µM
CCOC(=O)N1CCN(S(=O)(=O)c2ccc(C(=O)NNc3nc4cc(C)cc(C)c4s3)cc2)CC1	3.7 µM
CCOc1cccc(/C=N/NC(=O)c2cc(C3CC3)[nH]n2)c1O	5.72 µM
O=C(/C=C/c1ccc2c(c1)OCO2)c1c(O)n(CCC2=CCCCC2)c(=O)[nH]c1=O	1.63 µM
COc1cc2c(cc1NC(=O)Nc1ccc(C)cc1)oc1ccccc12	11.3 µM
Cc1ccccc1OCC(O)Cn1c2ccccc2c2ccccc21 (stereo not given)	6.78 µM
O=C(NC(=S)Nc1ccccc1N1CCCCC1)c1ccc(F)cc1Cl	2.84 µM
CCOC(=O)C(=NCCCN1CCOCC1)NNc1cccc(C(F)(F)F)c1	9.13 µM
Oc1cccc(-c2nc3c4c(ncn3n2)-c2ccccc2CC42CCCC2)c1	1.5 µM
CC(C)c1cc(-c2cc(-c3ccccc3)on2)nc(NC2CCCC2)n1	7.45 µM
Cc1ccc2nc(-c3cccc(-c4cccc(Cl)c4)c3)c(NCc3ccccc3)n2c1	3.17 µM
O=C1C=C(c2cccs2)C[C@H](c2ccccc2)[C@H]1n1nnc([N+](=O)[O-])n1	0.274 µM
Cc1cc(=O)[nH]c(N/N=C/c2ccc(-c3ccc(F)cc3)o2)n1	18.1 µM
CN(C)C(CNS(=O)(=O)c1ccc2ccccc2c1)c1ccccc1 (stereo not given)	> 19.5 µM (inactive)
O=c1c2ccccc2oc2ccc(C#CC3(O)CCCCC3)cc12	7.11 µM
O=C(NC(=S)Nc1ccc(N2CCCCC2)c(Cl)c1)c1cccs1	8.62 µM
CCCCCCCCOC(=O)c1c(CSC(=N)N)n(C)c2cc(Br)c(OC(C)=O)cc12	3.72 µM
Cc1ccnc(NC(=O)CSc2cc(=O)n(C)c3ccccc23)c1	8.16 µM
C=C[C@@H]1c2cc(C)ccc2N(S(=O)(=O)c2ccc(C)cc2)[C@H](c2ccc(OC(C)=O)cc2)C1(C#N)C#N	1.3 µM

Structure (SMILES)	AC50
CCn1c2ccccc2c2cc(NC(=O)c3cccc([N+](=O)[O-])c3)ccc21	3.63 µM
Cc1ccc(CN2CCSc3ccc(C(=O)NCc4ccco4)cc32)cc1	> 19.5 µM (inactive)
Cc1ccc(NC(=O)NCC2CCN(Cc3cccc(Cl)c3)CC2)cc1Cl	6.9 µM
CC(C)C[C@@H](CO)N(Cc1ccccc1)S(=O)(=O)N(Cc1ccccc1)[C@@H](CO)CC(C)C	3.87 µM
CN1CCN(c2ccc(NC(=O)COc3ccc(Cl)cc3Cl)cc2)CC1	5.38 µM
COc1cc(/C=N/NC(=O)c2ccc(CN(C)S(=O)(=O)c3ccc(C)cc3)cc2)ccc1O	5.13 µM
COc1cc(-c2ccc3c(=O)c4ccccc4n(C)c3c2)cc(OC)c1OC	8.21 µM
CC1(O)CC(c2ccc(Cl)cc2)=NN1C(=O)c1ccc([N+](=O)[O-])cc1 (stereo not given)	6.72 µM
O=C(Nc1ccc(Nc2ccccc2)cc1)c1cc([N+](=O)[O-])ccc1Cl	10.6 µM
CC(=O)c1ccc(-c2ccc([C@H]3[C@H]4C=CC[C@@H](C)[C@@H]4C(=O)N3Cc3ccccc3)c(F)c2)cc1	6.13 µM
C=C(C)COc1ccc(-c2nc(N)ncc2-c2ccc(Br)cc2)c(O)c1	7.37 µM
CC(C)c1ccc(N2C(=O)NC(=O)/C(=C\C=C\c3ccco3)C2=O)cc1	> 19.5 µM (inactive)
NC(=O)CC(NC(=O)Cc1ccc(Br)cc1)c1ccc(N2CCC(Cc3ccccc3)CC2)c([N+](=O)[O-])c1 (stereo not given)	14.7 µM
CCOC(=O)c1cnc(-n2nc(C)cc2C)nc1NNc1nc(-c2ccccc2)cc(-c2ccccc2)n1	3.25 µM
Cn1c(=O)c(C(=O)NNC(=O)c2ccc(Br)cc2)c(O)c2ccccc21	5.69 µM
O=C1/C(=C\c2cc(Br)cc(Br)c2O)SC(=S)N1Cc1ccccc1	0.906 µM
Cc1ccc(C(=O)Nc2nc(C)c(C(=O)Nc3ccc4c(c3)CCC4)s2)cc1	18.8 µM
O=c1cc(N2CCCCC2)c(-c2ccccc2)nn1Cc1ccc(Cl)cc1	3.77 µM
CCCC(C)c1nnc(NC(=O)COc2ccc3c(c2)OCO3)s1 (stereo not given)	9.04 µM
O=C(NC1CCCCC1)C(c1cccnc1)N(C(=O)CCl)c1ccc(F)cc1 (stereo not given)	3.47 µM
O=C(N/N=C/c1cn(-c2cccs2)nc1-c1ccccc1)c1ccc(O)cc1	7.76 µM
CC(C)(C)c1cc(C=C(C#N)C#N)cc(C(C)(C)C)c1O	3.08 µM
CN1CCN(C2Cc3ccc(F)cc3Sc3cc(F)c(Cl)cc32)CC1 (stereo not given)	5.49 µM
CCCC(c1nnnn1CC1CCCO1)N1CCN(c2cc(Cl)ccc2C)CC1 (stereo not given)	2.78 µM
O=C(NCc1ccc2c(c1)OCO2)c1nc(S(=O)(=O)Cc2ccccc2F)ncc1Cl	6.81 µM
